For one data set, the system named is VEEV ZPC738 TaV-nLuc. Nature of the data set: microbe, parasite or virus in culture. In kind it is cell-based. The settings on record: Venezuelan equine encephalitis virus, Vero, 24 h.
Data set [1] has as its system VEEV TC-83. In kind it is cell-based, Venezuelan equine encephalitis virus.
For the next data set, the system named is CHIKV. The class given is cell-based, chikungunya virus.
The nature of the next data set: in vitro. The settings on record: African green monkey.
The subject of the next data set is SINV. The class given is cell-based, Sindbis virus.
The test system of data set [2] is VEEV TC-83. The data set can be described thus: microbe, parasite or virus in culture. In kind it is cell-based. The settings on record: Venezuelan equine encephalitis virus, Vero, read-out: effective concentration 50% (EC50).
Another data set concerns EEEV FL93-939 TaV-nLuc. The data set can be described thus: microbe, parasite or virus in culture. In kind it is cell-based. To be noted: Eastern equine encephalitis virus, Vero, 24 h.

Molecules are shown by their SMILES. Several values for one entry are separate records, joined by “and”; a condition that tells them apart may be missing. Equal values may be shown once. Bounds are passed on as bounds.

Regarding `CC(=O)c1c(O)c(C)c(O)c(Cc2c(O)c3c(c(C(=O)/C=C/c4ccccc4)c2O)OC(C)(C)C=C3)c1O` [Rottlerin], the EC50 with VEEV ZPC738 TaV-nLuc was 1100 nM; in the data set on VEEV TC-83 [2] it was below 1000 nM; in the data set on EEEV FL93-939 TaV-nLuc, 1700 nM. Moreover, the “decrease in VEEV TC-83 replication” value in the data set on VEEV TC-83 [1] was 2 log and 3 log. For the same compound, the “decrease in CHIKV replication” value in the data set with CHIKV was 3 log. Also, the CC50 in the data set “in vitro” is 63 µM. The “decrease in SINV replication” value in the data set with SINV turned out to be 5 log.

Source of the values: patent publication US11406699B2 (priority 2019, dated 2022).
